Assay results taken from PubChem BioAssay (NCI).
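Test compounds were applied to cells in 96-well plates for 48 hours at 5 doses. The concentration for 50% growth inhibition is given as GI50. TGI: concentration producing complete growth inhibition.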

What was measured:
Assay in all cases: NCI tumour cell line growth inhibition, 48 h
MCF7 breast = test system: MCF7 breast
SK-MEL-5 melanoma = test system: SK-MEL-5 melanoma
SR leukemia = test system: SR leukemia
HCT-15 colon = test system: HCT-15 colon
786-0 renal = test system: 786-0 renal
TK-10 renal = test system: TK-10 renal
HOP-92 NSCLC = test system: HOP-92 NSCLC
SF-268 CNS = test system: SF-268 CNS
NCI-H23 lung = test system: NCI-H23 lung
DU-145 prostate = test system: DU-145 prostate
MDA-MB-231 breast = test system: MDA-MB-231 breast
OVCAR-4 ovarian = test system: OVCAR-4 ovarian
LOX IMVI melanoma = test system: LOX IMVI melanoma
SK-MEL-2 melanoma = test system: SK-MEL-2 melanoma
HL-60(TB) leukemia = test system: HL-60(TB) leukemia
SF-295 CNS = test system: SF-295 CNS
UO-31 renal = test system: UO-31 renal
MOLT-4 leukemia = test system: MOLT-4 leukemia
HT29 colon = test system: HT29 colon
MDA-MB-435 = test system: MDA-MB-435
ACHN renal = test system: ACHN renal
NCI-H522 lung = test system: NCI-H522 lung
M14 melanoma = test system: M14 melanoma
IGROV1 ovarian = test system: IGROV1 ovarian
U251 CNS = test system: U251 CNS
KM12 colon = test system: KM12 colon
HCT-116 colon = test system: HCT-116 colon
SNB-19 CNS = test system: SNB-19 CNS
OVCAR-3 ovarian = test system: OVCAR-3 ovarian
PC-3 prostate = test system: PC-3 prostate
NCI-H226 lung = test system: NCI-H226 lung
SK-MEL-28 melanoma = test system: SK-MEL-28 melanoma
BT-549 breast = test system: BT-549 breast
HS 578T breast = test system: HS 578T breast
RPMI-8226 leukemia = test system: RPMI-8226 leukemia
UACC-62 melanoma = test system: UACC-62 melanoma
HCC-2998 colon = test system: HCC-2998 colon
NCI-H460 lung = test system: NCI-H460 lung
OVCAR-8 ovarian = test system: OVCAR-8 ovarian
EKVX NSCLC = test system: EKVX NSCLC
UACC-257 melanoma = test system: UACC-257 melanoma
SNB-75 CNS = test system: SNB-75 CNS
T-47D breast = test system: T-47D breast
SK-OV-3 ovarian = test system: SK-OV-3 ovarian
HOP-62 NSCLC = test system: HOP-62 NSCLC
SW-620 colon = test system: SW-620 colon
CAKI-1 renal = test system: CAKI-1 renal
NCI/ADR-RES ovarian = test system: NCI/ADR-RES ovarian
A549 NSCLC = test system: A549 NSCLC
COLO 205 colon = test system: COLO 205 colon
SF-539 CNS = test system: SF-539 CNS
SN12C renal = test system: SN12C renal
OVCAR-5 ovarian = test system: OVCAR-5 ovarian
CCRF-CEM leukemia = test system: CCRF-CEM leukemia
A498 renal = test system: A498 renal
K-562 leukemia = test system: K-562 leukemia
MALME-3M melanoma = test system: MALME-3M melanoma

O=c1n(CC2CO2)c(=O)n(CC2CO2)n1CC1CO1 (stereo not drawn)
GI50 (MCF7 breast): 3.68 µM
TGI (MCF7 breast): > 100 µM
GI50 (SK-MEL-5 melanoma): 14.7 µM
TGI (SK-MEL-5 melanoma): > 79.9 µM
TGI (SR leukemia): > 100 µM
GI50 (HCT-15 colon): 11.1 µM
TGI (HCT-15 colon): 44.3 µM
GI50 (786-0 renal): 4.78 µM
TGI (786-0 renal): > 83.2 µM
GI50 (TK-10 renal): 27.9 µM
TGI (TK-10 renal): > 100 µM
GI50 (HOP-92 NSCLC): 49.3 µM
TGI (HOP-92 NSCLC): > 100 µM
GI50 (SF-268 CNS): 15.7 µM
TGI (SF-268 CNS): > 100 µM
GI50 (NCI-H23 lung): 22.7 µM
TGI (NCI-H23 lung): > 100 µM
GI50 (DU-145 prostate): 3.58 µM
TGI (DU-145 prostate): > 61.3 µM
GI50 (MDA-MB-231 breast): > 96.4 µM
TGI (MDA-MB-231 breast): > 100 µM
GI50 (OVCAR-4 ovarian): 19.2 µM
TGI (OVCAR-4 ovarian): > 85 µM
GI50 (LOX IMVI melanoma): 16.7 µM
TGI (LOX IMVI melanoma): > 100 µM
GI50 (SK-MEL-2 melanoma): > 73.5 µM
TGI (SK-MEL-2 melanoma): > 100 µM
GI50 (HL-60(TB) leukemia): 4.99 µM
TGI (HL-60(TB) leukemia): > 49.4 µM
GI50 (SF-295 CNS): 3.65 µM
TGI (SF-295 CNS): > 100 µM
GI50 (UO-31 renal): 7.86 µM
TGI (UO-31 renal): > 76.2 µM
GI50 (MOLT-4 leukemia): 4.46 µM
TGI (MOLT-4 leukemia): > 100 µM
GI50 (HT29 colon): 19.3 µM
TGI (HT29 colon): > 100 µM
GI50 (MDA-MB-435): 34.7 µM
TGI (MDA-MB-435): > 100 µM
GI50 (ACHN renal): 2.69 µM
TGI (ACHN renal): > 100 µM
GI50 (NCI-H522 lung): 12.8 µM
TGI (NCI-H522 lung): > 49.2 µM
GI50 (M14 melanoma): 21.9 µM
TGI (M14 melanoma): > 100 µM
GI50 (IGROV1 ovarian): 13.2 µM
TGI (IGROV1 ovarian): 41.1 µM
GI50 (U251 CNS): 10.9 µM
TGI (U251 CNS): > 100 µM
GI50 (KM12 colon): 31.5 µM
TGI (KM12 colon): > 100 µM
GI50 (HCT-116 colon): 18.9 µM
TGI (HCT-116 colon): > 100 µM
GI50 (SNB-19 CNS): 14.2 µM
TGI (SNB-19 CNS): > 100 µM
GI50 (OVCAR-3 ovarian): 13.7 µM
TGI (OVCAR-3 ovarian): > 55.5 µM
GI50 (PC-3 prostate): 29.2 µM
TGI (PC-3 prostate): > 100 µM
GI50 (NCI-H226 lung): 40.6 µM
TGI (NCI-H226 lung): > 100 µM
GI50 (SK-MEL-28 melanoma): > 53.1 µM
TGI (SK-MEL-28 melanoma): > 100 µM
GI50 (BT-549 breast): 27.8 µM
TGI (BT-549 breast): > 100 µM
GI50 (HS 578T breast): > 100 µM
TGI (HS 578T breast): > 100 µM
GI50 (RPMI-8226 leukemia): 13.6 µM
TGI (RPMI-8226 leukemia): > 57.8 µM
GI50 (UACC-62 melanoma): 6.51 µM
TGI (UACC-62 melanoma): > 64.1 µM
GI50 (HCC-2998 colon): 2.17 µM
TGI (HCC-2998 colon): 37.7 µM
GI50 (NCI-H460 lung): 0.416 µM
TGI (NCI-H460 lung): 30.8 µM
GI50 (OVCAR-8 ovarian): 27.2 µM
TGI (OVCAR-8 ovarian): > 100 µM
GI50 (EKVX NSCLC): 32.7 µM
TGI (EKVX NSCLC): > 100 µM
GI50 (UACC-257 melanoma): 13 µM
TGI (UACC-257 melanoma): 95.6 µM
GI50 (SNB-75 CNS): 15.8 µM
TGI (SNB-75 CNS): > 100 µM
GI50 (T-47D breast): 6.64 µM
TGI (T-47D breast): > 100 µM
GI50 (SK-OV-3 ovarian): 8.37 µM
TGI (SK-OV-3 ovarian): > 80.2 µM
GI50 (HOP-62 NSCLC): 4.7 µM
TGI (HOP-62 NSCLC): > 35.5 µM
GI50 (SW-620 colon): 22.5 µM
TGI (SW-620 colon): > 100 µM
GI50 (CAKI-1 renal): 2.22 µM
TGI (CAKI-1 renal): 21.7 µM
GI50 (NCI/ADR-RES ovarian): 19.5 µM
TGI (NCI/ADR-RES ovarian): > 100 µM
GI50 (A549 NSCLC): 5.9 µM
TGI (A549 NSCLC): > 72 µM
GI50 (COLO 205 colon): 6.04 µM
TGI (COLO 205 colon): 41.5 µM
GI50 (SF-539 CNS): 4.89 µM
TGI (SF-539 CNS): > 54.3 µM
GI50 (SN12C renal): 9.03 µM
TGI (SN12C renal): > 100 µM
GI50 (OVCAR-5 ovarian): 63.1 µM
TGI (OVCAR-5 ovarian): > 100 µM
GI50 (CCRF-CEM leukemia): 3.27 µM
TGI (CCRF-CEM leukemia): > 80.2 µM
GI50 (A498 renal): 14.1 µM
TGI (A498 renal): 29.9 µM
GI50 (K-562 leukemia): 51.4 µM
TGI (K-562 leukemia): > 100 µM
GI50 (MALME-3M melanoma): 64.1 µM
TGI (MALME-3M melanoma): > 100 µM
